Experimental data: ChEMBL document CHEMBL2203234, “Optimisation of imidazole compounds as selective TAAR1 agonists: discovery of RO5073012” (Bioorg Med Chem Lett, 2012)

Key:
[1] = molecular target: Phenylethanolamine N-methyltransferase (Homo sapiens) (UniProt P11086); test: Inhibition of PNMT at 10 uM by CEREP assay
[2] = Inhibition of L-type Ca2+ channel DHP site at 10 uM by CEREP assay
[3] = molecular target: D(1B) dopamine receptor (Homo sapiens) (UniProt P21918); test: Inhibition of human D5 receptor at 10 uM by CEREP assay
[4] = molecular target: D(1A) dopamine receptor (Homo sapiens) (UniProt P21728); test: Inhibition of human D1 receptor at 10 uM by CEREP assay
[5] = molecular target: Cholecystokinin receptor type A (Homo sapiens) (UniProt P32238); test: Inhibition of human CCKA receptor at 10 uM by CEREP assay
[6] = molecular target: Muscarinic acetylcholine receptor M5 (Homo sapiens) (UniProt P08912); test: Inhibition of human M5 receptor at 10 uM by CEREP assay
[7] = molecular target: Beta-1 adrenergic receptor (Homo sapiens) (UniProt P08588); test: Inhibition of human beta 1 adrenergic receptor at 10 uM by CEREP assay
[8] = molecular target: B1 bradykinin receptor (Homo sapiens) (UniProt P46663); test: Inhibition of human B1 receptor at 10 uM by CEREP assay
[9] = molecular target: Histamine H3 receptor (Homo sapiens) (UniProt Q9Y5N1); test: Inhibition of human H3 receptor at 10 uM by CEREP assay
[10] = molecular target: Cannabinoid receptor 1 (Homo sapiens) (UniProt P21554); test: Inhibition of human CB1 receptor at 10 uM by CEREP assay
[11] = molecular target: Type-2 angiotensin II receptor (Homo sapiens) (UniProt P50052); test: Inhibition of human AT2 receptor at 10 uM by CEREP assay
[12] = molecular target: Neuromedin-K receptor (Homo sapiens) (UniProt P29371); test: Inhibition of human Nk3 receptor at 10 uM by CEREP assay
[13] = molecular target: Glucagon receptor (Homo sapiens) (UniProt P47871); test: Inhibition of human glucagon receptor at 10 uM by CEREP assay
[14] = species: Homo sapiens; test: Inhibition of human Choline transporter at 10 uM by CEREP assay
[15] = Inhibition of Na+/K+ ATPase at 10 uM by CEREP assay
[16] = molecular target: Melanocortin receptor 4 (Homo sapiens) (UniProt P32245); test: Inhibition of human MC4 receptor at 10 uM by CEREP assay
[17] = molecular target: 4-aminobutyrate aminotransferase, mitochondrial (Homo sapiens) (UniProt P80404); test: Inhibition of GABA transaminase at 10 uM by CEREP assay
[18] = Inhibition of PDE1 at 10 uM by CEREP assay
[19] = Inhibition of tyrosine hydroxylase at 10 uM by CEREP assay
[20] = molecular target: D(3) dopamine receptor (Homo sapiens) (UniProt P35462); test: Inhibition of human D3 receptor at 10 uM by CEREP assay
[21] = Inhibition of central BZD receptor at 10 uM by CEREP assay
[22] = molecular target: Muscarinic acetylcholine receptor M2 (Homo sapiens) (UniProt P08172); test: Inhibition of human M2 receptor at 10 uM by CEREP assay
[23] = molecular target: 5-hydroxytryptamine receptor 1B (Homo sapiens) (UniProt P28222); test: Inhibition of 5-HT1B receptor at 10 uM by CEREP assay
[24] = molecular target: Histamine H1 receptor (Homo sapiens) (UniProt P35367); test: Inhibition of human H1 receptor at 10 uM by CEREP assay
[25] = molecular target: Estrogen receptor (Homo sapiens) (UniProt P03372); test: Inhibition of human estrogen receptor at 10 uM by CEREP assay
[26] = molecular target: Leukotriene B4 receptor 1 (Homo sapiens) (UniProt Q15722); test: Inhibition of human LTB4 receptor at 10 uM by CEREP assay
[27] = species: Homo sapiens; test: Inhibition of human I1 receptor at 10 uM by CEREP assay
[28] = molecular target: Sodium-dependent serotonin transporter (Homo sapiens) (UniProt P31645); test: Inhibition of human 5-HT transporter at 10 uM by CEREP assay
[29] = molecular target: Calcitonin gene-related peptide type 1 receptor (Homo sapiens) (UniProt Q16602); test: Inhibition of human CGRP receptor at 10 uM by CEREP assay
[30] = molecular target: Pituitary adenylate cyclase-activating polypeptide type I receptor (Homo sapiens) (UniProt P41586); test: Inhibition of human PAC1 receptor at 10 uM by CEREP assay
[31] = molecular target: Substance-P receptor (Homo sapiens) (UniProt P25103); test: Inhibition of human Nk1 receptor at 10 uM by CEREP assay
[32] = molecular target: Acetylcholinesterase (Homo sapiens) (UniProt P22303); test: Inhibition of human Acetylcholinesterase at 10 uM by CEREP assay
[33] = molecular target: Adenosine receptor A2a (Homo sapiens) (UniProt P29274); test: Inhibition of human A2A receptor at 10 uM by CEREP assay

Chain of Melanocortin receptor 4 (Homo sapiens) (P32245 whole entry): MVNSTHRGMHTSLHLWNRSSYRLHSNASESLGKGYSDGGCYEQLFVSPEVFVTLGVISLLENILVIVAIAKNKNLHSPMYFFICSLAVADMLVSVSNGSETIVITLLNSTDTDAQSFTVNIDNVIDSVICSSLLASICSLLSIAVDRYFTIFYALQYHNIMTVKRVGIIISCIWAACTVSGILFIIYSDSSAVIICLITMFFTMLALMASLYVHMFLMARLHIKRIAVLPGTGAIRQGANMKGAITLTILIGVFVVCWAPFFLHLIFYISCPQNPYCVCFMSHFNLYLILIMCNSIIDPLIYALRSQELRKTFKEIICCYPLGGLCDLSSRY
Chain of Histamine H1 receptor (Homo sapiens) (P35367 whole entry): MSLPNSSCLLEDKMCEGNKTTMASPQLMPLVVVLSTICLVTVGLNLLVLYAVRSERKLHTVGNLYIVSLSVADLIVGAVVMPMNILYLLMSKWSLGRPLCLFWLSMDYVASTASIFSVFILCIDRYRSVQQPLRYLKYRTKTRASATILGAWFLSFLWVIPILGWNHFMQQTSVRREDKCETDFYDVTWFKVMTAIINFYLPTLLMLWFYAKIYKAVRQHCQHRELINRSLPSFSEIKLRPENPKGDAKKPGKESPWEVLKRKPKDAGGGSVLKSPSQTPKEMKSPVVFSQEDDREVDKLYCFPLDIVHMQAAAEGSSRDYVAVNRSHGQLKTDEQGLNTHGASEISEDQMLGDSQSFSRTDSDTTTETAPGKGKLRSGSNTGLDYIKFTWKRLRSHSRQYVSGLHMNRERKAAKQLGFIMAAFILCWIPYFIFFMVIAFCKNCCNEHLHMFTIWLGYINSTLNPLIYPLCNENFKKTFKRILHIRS
Chain of Beta-1 adrenergic receptor (Homo sapiens) (P08588 whole entry, looked up): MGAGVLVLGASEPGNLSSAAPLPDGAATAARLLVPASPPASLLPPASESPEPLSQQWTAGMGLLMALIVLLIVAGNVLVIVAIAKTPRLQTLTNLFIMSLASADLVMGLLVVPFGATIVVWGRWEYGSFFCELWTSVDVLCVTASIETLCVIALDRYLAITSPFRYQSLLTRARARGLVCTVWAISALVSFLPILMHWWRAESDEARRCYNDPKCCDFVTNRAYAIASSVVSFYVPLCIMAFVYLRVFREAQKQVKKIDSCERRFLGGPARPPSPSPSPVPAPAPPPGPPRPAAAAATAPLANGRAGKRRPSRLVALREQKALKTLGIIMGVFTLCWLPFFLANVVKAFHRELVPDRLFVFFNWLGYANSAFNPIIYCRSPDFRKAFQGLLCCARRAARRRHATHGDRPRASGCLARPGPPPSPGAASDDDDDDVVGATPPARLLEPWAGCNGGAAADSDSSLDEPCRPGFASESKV
Chain of Phenylethanolamine N-methyltransferase (Homo sapiens) (P11086 whole entry): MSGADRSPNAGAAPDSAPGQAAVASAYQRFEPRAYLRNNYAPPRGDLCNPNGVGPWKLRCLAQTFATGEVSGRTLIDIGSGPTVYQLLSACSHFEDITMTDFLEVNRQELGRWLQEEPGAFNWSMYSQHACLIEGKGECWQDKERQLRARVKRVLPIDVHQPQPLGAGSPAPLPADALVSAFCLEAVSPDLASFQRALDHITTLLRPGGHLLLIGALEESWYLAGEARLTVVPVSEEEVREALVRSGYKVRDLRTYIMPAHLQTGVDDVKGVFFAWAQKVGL
Chain of Substance-P receptor (Homo sapiens) (P25103 whole entry): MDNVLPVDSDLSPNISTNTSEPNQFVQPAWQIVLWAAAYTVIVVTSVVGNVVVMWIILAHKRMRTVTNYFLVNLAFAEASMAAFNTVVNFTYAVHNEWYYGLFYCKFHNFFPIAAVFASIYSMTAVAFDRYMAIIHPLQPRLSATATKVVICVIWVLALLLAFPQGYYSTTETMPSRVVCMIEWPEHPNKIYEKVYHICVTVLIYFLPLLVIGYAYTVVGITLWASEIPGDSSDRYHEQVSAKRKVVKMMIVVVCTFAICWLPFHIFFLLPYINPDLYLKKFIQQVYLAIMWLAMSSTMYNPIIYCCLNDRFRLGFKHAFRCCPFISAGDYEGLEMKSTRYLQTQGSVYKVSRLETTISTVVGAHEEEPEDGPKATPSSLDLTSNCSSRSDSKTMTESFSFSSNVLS
Chain of Pituitary adenylate cyclase-activating polypeptide type I receptor (Homo sapiens) (P41586 21-468 limits assumed): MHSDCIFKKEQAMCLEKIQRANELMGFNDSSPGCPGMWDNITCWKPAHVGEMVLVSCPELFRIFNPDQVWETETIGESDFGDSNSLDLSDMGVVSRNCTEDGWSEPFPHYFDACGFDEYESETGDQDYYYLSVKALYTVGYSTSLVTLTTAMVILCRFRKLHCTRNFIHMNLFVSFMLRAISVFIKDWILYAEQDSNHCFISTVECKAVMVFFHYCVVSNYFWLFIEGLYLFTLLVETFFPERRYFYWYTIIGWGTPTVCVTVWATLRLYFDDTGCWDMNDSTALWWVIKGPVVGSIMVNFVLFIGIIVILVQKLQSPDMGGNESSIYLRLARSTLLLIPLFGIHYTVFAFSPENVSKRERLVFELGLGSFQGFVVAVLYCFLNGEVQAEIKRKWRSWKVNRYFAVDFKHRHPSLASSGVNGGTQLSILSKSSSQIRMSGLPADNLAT
Chain of D(1A) dopamine receptor (Homo sapiens) (P21728 whole entry): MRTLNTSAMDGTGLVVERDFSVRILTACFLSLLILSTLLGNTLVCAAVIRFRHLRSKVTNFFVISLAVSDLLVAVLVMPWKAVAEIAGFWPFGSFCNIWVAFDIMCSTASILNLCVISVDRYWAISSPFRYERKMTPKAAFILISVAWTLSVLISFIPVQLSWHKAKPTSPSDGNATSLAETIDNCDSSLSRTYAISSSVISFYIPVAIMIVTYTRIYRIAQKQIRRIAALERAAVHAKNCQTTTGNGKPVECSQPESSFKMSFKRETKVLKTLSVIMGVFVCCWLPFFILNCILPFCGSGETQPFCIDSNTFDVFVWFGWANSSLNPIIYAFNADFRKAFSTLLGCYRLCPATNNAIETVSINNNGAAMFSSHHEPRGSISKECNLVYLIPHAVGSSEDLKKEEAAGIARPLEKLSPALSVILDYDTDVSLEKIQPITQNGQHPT
Chain of 4-aminobutyrate aminotransferase, mitochondrial (Homo sapiens) (P80404 whole entry): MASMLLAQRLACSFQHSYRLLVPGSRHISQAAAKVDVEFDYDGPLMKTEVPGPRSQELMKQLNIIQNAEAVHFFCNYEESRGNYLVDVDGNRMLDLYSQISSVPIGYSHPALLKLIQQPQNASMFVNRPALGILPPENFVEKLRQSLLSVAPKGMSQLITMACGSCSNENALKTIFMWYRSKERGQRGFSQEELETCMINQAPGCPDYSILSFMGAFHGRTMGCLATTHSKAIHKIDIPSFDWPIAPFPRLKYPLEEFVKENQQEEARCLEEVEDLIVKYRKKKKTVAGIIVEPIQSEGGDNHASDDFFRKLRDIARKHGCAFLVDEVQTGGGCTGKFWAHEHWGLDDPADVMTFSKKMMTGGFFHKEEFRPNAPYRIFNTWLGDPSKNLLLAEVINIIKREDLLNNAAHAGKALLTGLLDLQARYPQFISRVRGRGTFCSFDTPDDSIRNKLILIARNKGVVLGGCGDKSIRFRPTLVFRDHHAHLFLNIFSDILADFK
Chain of Estrogen receptor (Homo sapiens) (P03372 whole entry): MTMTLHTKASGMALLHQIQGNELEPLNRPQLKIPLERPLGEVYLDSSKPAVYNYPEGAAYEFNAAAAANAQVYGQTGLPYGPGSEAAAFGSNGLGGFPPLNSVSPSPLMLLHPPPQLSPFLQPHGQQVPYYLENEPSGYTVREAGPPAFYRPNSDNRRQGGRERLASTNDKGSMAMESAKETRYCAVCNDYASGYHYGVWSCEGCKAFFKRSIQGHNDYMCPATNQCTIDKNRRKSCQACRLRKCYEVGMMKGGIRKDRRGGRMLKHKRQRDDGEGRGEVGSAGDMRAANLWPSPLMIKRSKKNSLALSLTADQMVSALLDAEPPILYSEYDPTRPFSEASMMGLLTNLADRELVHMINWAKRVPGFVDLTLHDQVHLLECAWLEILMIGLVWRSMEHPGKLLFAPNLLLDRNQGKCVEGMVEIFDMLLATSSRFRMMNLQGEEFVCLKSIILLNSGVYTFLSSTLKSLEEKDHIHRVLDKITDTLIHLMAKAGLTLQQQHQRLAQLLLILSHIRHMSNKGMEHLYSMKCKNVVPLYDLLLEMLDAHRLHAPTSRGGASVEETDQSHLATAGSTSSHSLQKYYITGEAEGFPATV
Chain of Sodium-dependent serotonin transporter (Homo sapiens) (P31645 whole entry, looked up): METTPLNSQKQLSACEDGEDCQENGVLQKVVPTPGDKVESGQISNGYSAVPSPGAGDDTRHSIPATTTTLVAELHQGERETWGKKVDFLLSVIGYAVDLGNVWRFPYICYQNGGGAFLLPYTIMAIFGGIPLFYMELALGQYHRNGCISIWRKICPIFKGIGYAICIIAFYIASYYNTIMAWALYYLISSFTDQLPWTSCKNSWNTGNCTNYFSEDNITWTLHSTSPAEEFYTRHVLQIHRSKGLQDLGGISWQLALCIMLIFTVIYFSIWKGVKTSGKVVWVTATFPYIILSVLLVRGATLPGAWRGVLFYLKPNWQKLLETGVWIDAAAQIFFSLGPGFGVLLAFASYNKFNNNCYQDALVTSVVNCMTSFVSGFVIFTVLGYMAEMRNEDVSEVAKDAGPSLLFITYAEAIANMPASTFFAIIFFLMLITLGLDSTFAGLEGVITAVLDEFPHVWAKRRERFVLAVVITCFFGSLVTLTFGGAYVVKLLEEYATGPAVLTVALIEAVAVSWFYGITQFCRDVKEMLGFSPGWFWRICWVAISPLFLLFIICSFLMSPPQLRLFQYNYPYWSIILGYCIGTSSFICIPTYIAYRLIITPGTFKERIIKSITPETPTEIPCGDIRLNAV
Chain of Leukotriene B4 receptor 1 (Homo sapiens) (Q15722 whole entry): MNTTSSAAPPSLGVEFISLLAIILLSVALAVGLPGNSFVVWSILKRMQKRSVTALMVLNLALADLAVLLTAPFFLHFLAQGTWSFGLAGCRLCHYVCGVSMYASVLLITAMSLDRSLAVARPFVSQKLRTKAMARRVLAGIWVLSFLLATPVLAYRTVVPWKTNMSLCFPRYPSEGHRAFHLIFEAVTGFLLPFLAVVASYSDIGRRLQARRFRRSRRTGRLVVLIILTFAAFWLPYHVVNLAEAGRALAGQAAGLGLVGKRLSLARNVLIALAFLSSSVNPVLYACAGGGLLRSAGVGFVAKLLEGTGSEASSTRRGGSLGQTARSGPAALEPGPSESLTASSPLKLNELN

Compound `CCc1cccc(CC)c1Cc1ncc[nH]1` has an inhibition [1] of 22%, an inhibition [2] of 1% and an inhibition [3] of 17%. The inhibition [4] was 8%, the inhibition [5] was 4% and the inhibition [6] was 8%. For the same compound, the inhibition [7] was 5%, the inhibition [8] was -6% and the inhibition [9] was 6%. The inhibition [10] was 4%, the inhibition [11] was -3% and the inhibition [12] was 10%. The inhibition [13] was -5%, the inhibition [14] was 23% and the inhibition [15] was -1%. It also gave an inhibition [16] of -4%, an inhibition [17] of 17% and an inhibition [18] of 7%. The inhibition [19] was 1%, the inhibition [20] was 10% and the inhibition [21] was 19%. It also gave an inhibition [22] of 36%, an inhibition [23] of 18% and an inhibition [24] of 1%. For the same compound, the inhibition [25] was -4%, the inhibition [26] was 5% and the inhibition [27] was 78%. It also gave an inhibition [28] of 4%, an inhibition [29] of -5% and an inhibition [30] of 21%. It also gave an inhibition [31] of 5%, an inhibition [32] of 17% and an inhibition [33] of -6%.
